# Laboratory results taken from patent US20120252730A1, “PLATELET AGGREGATION INHIBITORS” (UNIVERSITY OF CHICAGO, priority 2009, published 2012).
# Ends that are not written are not given here.
# Test system: αIIbβ3 CHO K1 cells
# Experiment: Cell adhesion inhibition assay with soluble peptides
# Format: cell-based, human
# Settings: monolayer presenting GRGDS
# Protocol: (§1) Suspensions of αIIbβ3 CHO K1 cells (100,000/mL) were incubated with cRGDFG (SEQ ID NO: 12) (300 μM) in serum-free F-12K medium with 1 mg/mL BSA (bovine serum albumin) and 1× penicillin/streptomycin for 15 minutes at 37° C. and 5% CO2. These suspensions were then supplemented with soluble peptides at concentrations ranging from 1 pM to 100 μM and further incubated for 15 minutes at 37° C. and 5% CO2. Cells were then added to monolayers and incubated at 37° C. and 5% CO2 for 2 hours, then media was exchanged for F-12K medium supplemented with 10% FBS and 1× penicillin/streptomycin. The substrates were further incubated for 2 hours. The substrates were washed gently with warm PBS, and adherent cells were immediately fixed and permeabilized with 4% formaldehyde and 0.5% Triton-X for 30 minutes. Fixed cells were stained with DAPI, visualized and photographed with a 20× as described previously. The number of adherent cells per field of view was counted using Image J. Cells were counted in at least five fields for each substrate, and each experiment was repeated 3 times. The degree of inhibition is reported as a percentage of cells that adhere relative to control experiments in the absence of soluble peptide.
# To verify that the two peptides interact with the same site on αIIbβ3, it was determined whether the peptides GRGDS (SEQ ID NO: 4), HHLGGAKQAGDV (SEQ ID NO: 1) and AGDV (SEQ ID NO: 22), in soluble form, could block the attachment of cells to the monolayers presenting these ligands. In these experiments identical suspensions of cells (100,000/mL) were first incubated in serum-free F-12K medium supplemented with cRGDFG (SEQ ID NO: 12) (300 μM) and with the soluble peptides in concentrations ranging from 1 pM to 100 μM and then applied the mixtures to monolayers presenting either the GRGDSC (SEQ ID NO: 11), HHLGGAKQAGDVC (SEQ ID NO: 21), or AGDVC (SEQ ID NO: 17) peptide (SEQ ID NO: 17) (FIG. 5). Cells were allowed to attach for 2 hours, after which media was exchanged to 10% FBS F-12K medium (supplemented with cRGDFG (SEQ ID NO: 12)) and cultured for an additional 2 hours. The slides were then rinsed and nuclei were stained with DAPI to facilitate counting of the adherent cells. […] This experiment again verifies that the cell attachment is mediated by the immobilized peptide alone and not non-specific interactions between other cell-surface molecules and the monolayer.
row,Molecule,block of cell attachment by soluble peptide
1,AGDV (completely synthesized peptide),blocked cell attachment
2,HHLGGAKQAGDV (not fully specified (C-terminus)),blocked cell attachment

# Same assay, conditions: monolayers presenting GRGDSC, HHLGGAKQAGDVC or AGDVC; soluble peptide 1 pM to 100 μM; 300 μM cRGDFG
row,Molecule,block of cell attachment by soluble peptide
1,AGDV (completely synthesized peptide),could block cell attachment to monolayers presenting any of the three peptides
2,GADGV (scrambled peptide),had no effect on cell adhesion
3,GGRDGS (scrambled peptide),had no effect on cell adhesion
4,GHHLGGADQAGKV (scrambled peptide),had no effect on cell adhesion
5,GRGDS (synthesized peptide inhibitor),could block cell attachment to monolayers presenting any of the three peptides
6,HHLGGAKQAGDV (not fully specified (C-terminus)),could block cell attachment to monolayers presenting any of the three peptides

# Test system: αIIbβ3 CHO K1 cells
# Experiment: Cell adhesion assay: αIIbβ3 CHO K1 cells on SAMs presenting immobilized peptides
# Format: cell-based, human
# Settings: 0.5% peptide SAM; in presence of 300 μM cRGDFG
# Protocol: Monolayers were prepared as described (Houseman, et al., 2003). Glass coverslips were sonicated for 30 minutes in deionized ultrafiltered (DIUF) water and then 30 minutes in ethanol and then dried under a stream of nitrogen. Titanium (4 nm) and then gold (29 nm) were evaporated onto the coverslips using an electron beam evaporator (Boc Edwards) at a rate of 0.05-0.10 nm/s and at a pressure of 1 μTorr. The gold-coated coverslips were immersed in an ethanolic solution of maleimide-terminated disulfide (1%) and tri(ethylene glycol)-terminated disulfide (99%) overnight at room temperature. The total disulfide concentration was 1 mM. The substrates were washed with DIUF water, ethanol and then dried under a stream of nitrogen.
# The pcDNA3.1 vectors that express human αIIb or β3, respectively, have been described previously (see e.g., Litvinov et al. (2006) Biochemistry, 45: 4957-4964). CHO K1, BHK 21 and HT1080 cells were purchased from ATCC. All CHO cells were cultured at 37° C. and 5% CO2 using F12K medium supplemented with 10% FBS and pen/strep. […] CHO K1 cells were transfected with αIIb and β3 cDNA with FuGENE following the supplier's protocol. Transfected cells were selected with 1 mg/mL zeocin and 1 mg/mL geneticin.
# (§2) Cysteine-terminated peptides were immobilized onto maleimide-presenting SAMs by adding 40 μL of 1 mM peptide solution to the biochip and incubating at 37° C. for 1 hour. Substrates were rinsed with DIUF water and ethanol and dried under a stream of nitrogen. αIIbβ3 CHO K1 cells were detached from culture plates with 1 mM EGTA/2 mM EDTA in PBS (phosphate-buffered saline), rinsed with serum-free F-12K medium, centrifuged and resuspended in serum-free F-12K medium supplemented with cRGDFG (SEQ ID NO: 12) (300 μM) and 1× penicillin/streptomycin. After 15-minute of incubation, cells (200,000/mL) were added to substrates in 24-well culture plates. After 2 hour incubation at 37° C. and 5% CO2, media was exchanged for F-12K medium supplemented with 10% FBS, 1× penicillin/streptomycin and cRGDFG (SEQ ID NO: 12) (300 μM). After 2 hours, the substrates were washed gently with warm PBS, and adherent cells were immediately fixed with 4% formaldehyde for 30 minutes, visualized with a 20× objective of a Zeiss Axiovert 200 inverted microscope, and photographed. For cell adhesion assays mediated by Ac-GXGDSC (SEQ ID NO: 26), αIIbβ3 CHO K1 cells were incubated on a 5×4 circle (1 mm diameter) array for 1 hour with serum-free F-12K medium supplemented with cRGDFG (SEQ ID NO: 12) (300 μM) and 1× penicillin/streptomycin, followed by media exchange to F-12K medium supplemented with 10% FBS, 1× penicillin/streptomycin and cRGDFG (SEQ ID NO: 12) (300 μM. The substrates were washed with warm PBS, and adherent cells were immediately fixed and permeabilized with 4% formaldehyde and 0.5% Triton-X for 30 minutes. Fixed cells were stained with DAPI, visualized and photographed with a 20× objective as described. The number of adherent cells per field of view was counted using Image J software. Cells were counted in at least three fields for each circle, and each experiment was repeated 3 times. The degree of adhesion is reported as a percentage of cells that adhere relative to control experiments with the peptide Ac-GRGDSC (SEQ ID NO: 28).
# Monolayers were prepared that presented a mixture of maleimide groups and tri(ethylene glycol) groups with the former present at a density of 0.5% (relative to total alkanethiolate). The monolayers were treated with cysteine-terminated peptides to immobilize the ligands (FIG. 1A). In each case mass spectrometry was used to verify immobilization of the peptides in high yield (Su et al., 2002).
# The adhesion and spreading of αIIbβ3 CHO K1 cells to monolayers presenting GRGDSC (SEQ ID NO: 11), HHLGGAKQAGDVC (SEQ ID NO: 21) and a mixture of both peptides was compared. […]
row,Molecule,adhesion of αIIbβ3 CHO K1 cells to monolayer presenting the peptide
1,GGRDGSC (scrambled peptide),lack of cell attachment

# Test system: αIIbβ3 CHO K1 cells
# Experiment: Ac-GXGDSC peptide array cell adhesion, αIIbβ3 CHO K1 cells
# Format: cell-based, human
# Settings: 0.5% peptide spots; 300 μM cRGDFG
# Protocol: as §2
# To further assay the binding of peptide ligands to the […] integrin for XGD peptide ligands, an array was used to assess the adhesion of cells to peptides having the arginine residue substituted with each amino acid other than cysteine (e.g., A, D, E, F, G, H, I, K, L, M, N, P, Q, R, S, T, V, W, and Y). The library of Ac-GXGDSC (SEQ ID NO: 26) peptides was synthesized and immobilized in an array with each peptide occupying a 1 mm diameter region of the monolayer (FIG. 61). A suspension of αIIbβ3 CHO K1 cells was applied to the entire array and cells were allowed to attach to regions presenting the various peptides. The substrates were then rinsed and stained with DAPI, and the cells were counted to determine the relative efficiency of cell attachment to peptides in the library. […] Substitution with leucine and isoleucine were also active, though at a lower level.
row,Molecule,cell adhesion on Ac-GXGDSC array relative to Ac-GRGDSC
1,Ac-GAGDSC (Ac-GAGDSC-NH2),mediated αIIbβ3 CHO K1 cell adhesion
2,Ac-GGGDSC (Ac-GGGDSC-NH2),mediated αIIbβ3 CHO K1 cell adhesion
3,Ac-GIGDSC (Ac-GIGDSC-NH2),mediated αIIbβ3 CHO K1 cell adhesion
4,Ac-GKGDSC (Ac-GKGDSC-NH2),mediated αIIbβ3 CHO K1 cell adhesion
5,Ac-GLGDSC (Ac-GLGDSC-NH2),mediated αIIbβ3 CHO K1 cell adhesion
6,Ac-GVGDSC (Ac-GVGDSC-NH2),mediated αIIbβ3 CHO K1 cell adhesion
7,GGRDGSC (scrambled peptide),did not adhere

# Target: T1, human αIIbβ3 integrin on transfected CHO K1 cells (human, UniProt P08514 32-1039; P05106 27-788)
# T1 construct: whole, on cells; CHO K1 cells transfected with human αIIb and β3 cDNA; about 30% of the cells expressed the receptor; also called platelet receptor; platelet integrin
# Experiment: soluble peptide (1 pM to 100 µM) inhibits adhesion of αIIbβ3 CHO K1 cells to peptide monolayers
# Settings: not given
# Protocol: as §1, with “CO₂.” for “CO2.”, “CO₂” for “CO2”
# To verify that the two peptides interact with the same site on αIIbβ3, it was determined whether the peptides GRGDS (SEQ ID NO: 4), […] (SEQ ID NO: 1) and AGDV (SEQ ID NO: 22), in soluble form, could block the attachment of cells to the monolayers presenting these ligands. In these experiments identical suspensions of cells (100,000/mL) were first incubated in serum-free F-12K medium supplemented with cRGDFG (SEQ ID NO: 12) (300 μM) and with the soluble peptides in concentrations ranging from 1 pM to 100 μM and then applied the mixtures to monolayers presenting either the GRGDSC (SEQ ID NO: 11), […] (SEQ ID NO: 21), or AGDVC (SEQ ID NO: 17) peptide (SEQ ID NO: 17) (FIG. 5). Cells were allowed to attach for 2 hours, after which media was exchanged to 10% FBS F-12K medium (supplemented with cRGDFG (SEQ ID NO: 12)) and cultured for an additional 2 hours. […]
row,binding result,Molecule
1,binds,"AGDV-NH2 (also called soluble AGDV) [AGDV (SEQ ID NO: 22), soluble peptide]"
2,binds,"HHLGGAKQAGDV-NH2 (Synthetic peptide; also called γ peptide) [HHLGGAKQAGDV (SEQ ID NO: 1), soluble peptide]"
3,binds,"GRGDS-NH2 (also called soluble GRGDS) [GRGDS (SEQ ID NO: 4), soluble peptide]"
